We go through 14 compounds from patent US12649750B2, “Macrocyclic compounds, compositions, and methods of using thereof” (Sionna Therapeutics Inc., priority 2022, dated 2026).

One assay concerns the target T1, CFTR (Homo sapiens, UniProt P13569, DEL508-508).
T1 construct: Primary human bronchial epithelial cells from a ΔF508 homozygous CF donor; host or cells: primary human bronchial epithelial cells (CF-HBE), ΔF508 homozygous donor
Nature of the assay: TECC24 AUC fold over DMSO @10 μM, CFTR-mediated transepithelial chloride transport in CF-HBE cells. Format: cell-based. The note with it: test agent AUC divided by DMSO vehicle AUC, primary CF-HBE cells, ΔF508 homozygous donor, 48 hours incubation. The essentials:
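ΔF508-homozygous primary bronchial epithelial cells incubated 48 h at 36.5° C with compound (10 μM) in IL-13-containing medium, then TECC24 current-clamp recording in pH 7.4 Hepes saline with benzamil 10 μM, forskolin 10 μM, then CFTR inhibitor-172 20 μM. Equivalent Cl− current AUC between forskolin and inhibitor, expressed as fold over DMSO.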

The target in a further assay is T2, NBD1 (Homo sapiens, UniProt P13569).
T2 construct: Purified recombinant NBD1 was produced using previously described methods; made in house
T2 sequence (P13569 423-646 limits assumed): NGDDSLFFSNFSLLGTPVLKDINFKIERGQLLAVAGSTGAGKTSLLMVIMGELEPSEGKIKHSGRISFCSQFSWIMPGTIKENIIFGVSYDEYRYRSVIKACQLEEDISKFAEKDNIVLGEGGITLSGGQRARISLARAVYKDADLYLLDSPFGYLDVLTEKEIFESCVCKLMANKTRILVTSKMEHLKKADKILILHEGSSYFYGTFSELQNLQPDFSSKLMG
In words: Aggregation analysis using differential static light scattering (DSLS), thermal stability of NBD1 (ΔTagg). Format: binding. The note with it: ΔTagg versus DMSO control, NBD1 0.2 mg/ml. In outline:
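NBD1 0.2 mg/ml, S200 buffer (50 mM Tris-HCl, 150 mM NaCl, 5 mM MgCl2, 2 mM ATP, 2 mM DTT, pH7.6) + 1% glycerol; cpd in DMSO; oil overlay. Ramp 25→70° C. at 1° C./min, DSLS images every 0.5° C. ΔTagg = Tagg (inflection) − mean DMSO Tagg.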

T1 sequence (P13569 with tags, fused parts or gaps DEL508-508): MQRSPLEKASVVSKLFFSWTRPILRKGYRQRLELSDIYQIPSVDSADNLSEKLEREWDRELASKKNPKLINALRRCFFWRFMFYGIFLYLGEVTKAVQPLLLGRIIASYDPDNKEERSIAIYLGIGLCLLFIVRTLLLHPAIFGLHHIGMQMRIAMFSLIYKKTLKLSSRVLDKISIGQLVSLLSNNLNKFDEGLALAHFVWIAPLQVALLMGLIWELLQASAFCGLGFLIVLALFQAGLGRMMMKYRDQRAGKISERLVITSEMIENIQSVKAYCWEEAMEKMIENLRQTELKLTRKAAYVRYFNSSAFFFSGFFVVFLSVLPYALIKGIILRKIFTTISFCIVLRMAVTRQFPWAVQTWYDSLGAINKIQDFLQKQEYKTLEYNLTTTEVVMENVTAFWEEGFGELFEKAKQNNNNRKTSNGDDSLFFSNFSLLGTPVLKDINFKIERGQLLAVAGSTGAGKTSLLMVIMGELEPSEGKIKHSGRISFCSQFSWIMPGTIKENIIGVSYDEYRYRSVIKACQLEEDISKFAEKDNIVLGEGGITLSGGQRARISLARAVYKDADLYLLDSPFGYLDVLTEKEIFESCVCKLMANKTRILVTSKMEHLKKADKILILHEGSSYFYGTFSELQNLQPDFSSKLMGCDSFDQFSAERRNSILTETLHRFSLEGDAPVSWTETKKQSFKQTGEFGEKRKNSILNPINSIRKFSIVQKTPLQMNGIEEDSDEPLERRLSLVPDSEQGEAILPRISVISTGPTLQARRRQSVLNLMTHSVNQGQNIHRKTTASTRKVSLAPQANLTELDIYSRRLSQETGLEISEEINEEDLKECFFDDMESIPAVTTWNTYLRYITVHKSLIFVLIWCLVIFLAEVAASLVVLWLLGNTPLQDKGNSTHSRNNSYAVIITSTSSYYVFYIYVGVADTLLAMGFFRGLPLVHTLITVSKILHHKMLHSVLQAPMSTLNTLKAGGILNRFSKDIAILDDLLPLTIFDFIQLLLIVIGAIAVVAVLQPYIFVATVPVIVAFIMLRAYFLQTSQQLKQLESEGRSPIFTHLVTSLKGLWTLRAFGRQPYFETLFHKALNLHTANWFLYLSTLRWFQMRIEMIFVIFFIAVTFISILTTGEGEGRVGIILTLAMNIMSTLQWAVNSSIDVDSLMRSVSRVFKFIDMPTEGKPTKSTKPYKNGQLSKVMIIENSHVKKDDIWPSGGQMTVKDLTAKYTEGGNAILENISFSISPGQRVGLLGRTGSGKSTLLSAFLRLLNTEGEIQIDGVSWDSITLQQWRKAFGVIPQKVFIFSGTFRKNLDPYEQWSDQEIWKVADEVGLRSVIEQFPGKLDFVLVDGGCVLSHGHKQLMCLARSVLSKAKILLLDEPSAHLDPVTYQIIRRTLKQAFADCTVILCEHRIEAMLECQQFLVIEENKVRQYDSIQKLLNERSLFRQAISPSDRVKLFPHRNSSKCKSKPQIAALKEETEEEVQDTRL

Regarding `C[C@@H](Cc1cccc([C@@]2(C)CCCC(C)(C)CS(=O)(=O)CCc3c(c(F)c(F)c4[nH]ccc34)Sc3ccc(F)c(c3)-c3nc2nn3C)c1)C(=O)O` (racemic) [Compound 259, (2S)-2-methyl-3-[3-[(6R)-21,22,28-trifluoro-3,6,10,10-tetramethyl-12,12-dioxo-12λ6,24-dithia-3,4,19,30-tetrazapentacyclo[23.3.1.12,5.015,23.016,20]triaconta-1(29),2(30),4,15,17,20,22,25,27-nonaen-6-yl]phenyl]propanoic Acid], the “TECC (AUC, 10 μM)” value at CFTR was “C (a value between 20 and 80 is marked “C”)”. Moreover, the “DSLS 3D (100 μM ΔT)” value at NBD1 was “C (a value greater than 10 °C and less than or equal to 25 °C is marked “C”)”.

As for `Cn1nc2nc1-c1cc(ccc1F)Oc1c(F)cc3[nH]ccc3c1CCS(=O)(=O)CC(C)(C)CCCC2(C)c1cccc(CC(C)(C)C(=O)O)c1` (single isomer, unassigned) [Compound 29B, 3-[3-(22,28-Difluoro-3,6,10,10-tetramethyl-12,12-dioxo-24-oxa-12lambda6-thia-3,4,19,30-tetrazapentacyclo[23.3.1.12,5.015,23.016,20]triaconta-1(29),2(30),4,15,17,20,22,25,27-nonaen-6-yl)phenyl]-2,2-dimethyl-propanoic acid], at CFTR, the “TECC (AUC, 10 μM)” value is listed as “A (a TECC value less than 12 is marked “A”)”. At NBD1, the “DSLS 3D (100 μM ΔT)” value is “A (an ΔTagg value less than or equal to 5 °C is marked “A”)”.

As to `C[C@@H](Cc1cccc([C@@]2(C)CCCC(C)(C)CS(=O)(=O)CCc3c(c(F)cc4[nH]ccc34)[S+]([O-])c3ccnc(c3)-c3nc2nn3C)c1)C(=O)O` (single isomer, unassigned) [Compound 222A], the “TECC (AUC, 10 μM)” value on CFTR is “C (a value between 20 and 80 is marked “C”)”. Also, the “DSLS 3D (100 μM ΔT)” value at NBD1 is “B (a value above 5 °C and less than or equal to 10 °C is marked “B”)”.

Consider `CCOC(=O)CC(O)c1cccc(C2(C)CCCC(C)(C)CS(=O)(=O)CCc3c(c(F)cc4[nH]ccc34)Oc3ccc(F)c(c3)-c3nc2nn3C)c1` (stereo not shown) [Compound 177, Ethyl 3-[3-(22,28-difluoro-3,6,10,10-tetramethyl-12,12-dioxo-24-oxa-12λ6-thia-3,4,19,30-tetrazapentacyclo[23.3.1.12,5.015,23.016,20]-triaconta-1(29),2(30),4,15,17,20,22,25,27-nonaen-6-yl)phenyl]-3-hydroxy-propanoate], for which, at CFTR, the “TECC (AUC, 10 μM)” value was “C (a value between 20 and 80 is marked “C”)”. Moreover, on NBD1, the “DSLS 3D (100 μM ΔT)” value is “B (a value above 5 °C and less than or equal to 10 °C is marked “B”)”.

For the compound `CC(C)n1nc2nc1-c1cc(ccc1F)Oc1c(F)cc3[nH]ccc3c1CCS(=O)(=O)CC(C)(C)CCCC2(C)c1cccc(CCC(=O)O)c1` (stereo not shown) [Compound 75, 3-[3-(22,28-difluoro-3-isopropyl-6,10,10-trimethyl-12,12-dioxo-24-oxa-12λ6-thia-3,4,19,30-tetrazapentacyclo-[23.3.1.12,5.015,23.016,20]triaconta-1(29),2(30),4,15,17,20,22,25,27-nonaen-6-yl)phenyl]propanoic Acid], the “TECC (AUC, 10 μM)” value on CFTR is “A (a TECC value less than 12 is marked “A”)”. Moreover, at NBD1, the “DSLS 3D (100 μM ΔT)” value was “C (a value greater than 10 °C and less than or equal to 25 °C is marked “C”)”.

Turning to `Cc1cn2nc1-c1cc(ccc1F)Oc1c(F)cc3[nH]ccc3c1CCS(=O)(=O)CC(C)(C)COCC2c1cccc(CCC(=O)O)c1` (single isomer, unassigned) [Compound 84B, 3-[3-(22,28-difluoro-3,10,10-trimethyl-12,12-dioxo-8,24-dioxa-12lambda6-thia-5,19,30-triazapentacyclo[23.3.1.12,5.015,23.016,20]triaconta-1(29),2(30),3,15,17,20,22,25,27-nonaen-6-yl)phenyl]propanoic acid], at CFTR, the “TECC (AUC, 10 μM)” value is recorded as “A (a TECC value less than 12 is marked “A”)”. The “DSLS 3D (100 μM ΔT)” value at NBD1 was “A (an ΔTagg value less than or equal to 5 °C is marked “A”)”.

Regarding `C[C@H](Cc1cccc([C@@]2(C)CCCC(C)(C)CS(=O)(=O)CCc3c(c(F)cc4[nH]ccc34)[S+]([O-])c3ccc(F)c(c3)-c3nc2nn3C)c1)C(=O)O` (single isomer, unassigned) [Compound 206B], the “TECC (AUC, 10 μM)” value at CFTR is recorded as “A (a TECC value less than 12 is marked “A”)”. In addition, on NBD1, the “DSLS 3D (100 μM ΔT)” value is “B (a value above 5 °C and less than or equal to 10 °C is marked “B”)”.

Turning to `CC1(C)CCCC(c2cccc(CCC(=O)O)c2)n2ncc(C#N)c2-c2cc(ccc2F)Oc2c(F)cc3[nH]ccc3c2CCS(=O)(=O)C1` (racemic) [Compound 22A, 3-[3-(3-cyano-23,29-difluoro-11,11-dimethyl-13,13-dioxo-25-oxa-13lambda6-thia-5,6,20-triazapentacyclo[24.3.1.02,6.016,24.017,21]triaconta-1(30),2,4,16,18,21,23,26,28-nonaen-7-yl)phenyl]propanoic acid], the “TECC (AUC, 10 μM)” value at CFTR is on record as “A (a TECC value less than 12 is marked “A”)”. For the same compound, the “DSLS 3D (100 μM ΔT)” value on NBD1 was “A (an ΔTagg value less than or equal to 5 °C is marked “A”)”.

`Cn1nc2nc1-c1cc(ccc1F)C(=O)c1c(F)cc3[nH]ccc3c1CCS(=O)(=O)CC(C)(C)CCCC2(C)c1cccc(CCC(=O)O)c1` (single isomer, unassigned) [Compound 31C, 3-[3-[22,28-difluoro-3,6,10,10-tetramethyl-12,12,24-trioxo-12lambda6-thia-3,4,19,30-tetrazapentacyclo[23.3.1.12,5.015,23.016,20]triaconta-1(29),2(30),4,15,17,20,22,25,27-nonaen-6-yl]phenyl]propanoic Acid]: at CFTR, the “TECC (AUC, 10 μM)” value was “C (a value between 20 and 80 is marked “C”)”. Moreover, at NBD1, the “DSLS 3D (100 μM ΔT)” value was “C (a value greater than 10 °C and less than or equal to 25 °C is marked “C”)”.

With `Cn1nc2nc1-c1cc(ccn1)Oc1c(F)cc3[nH]ccc3c1CCS(=O)(=O)CC(C)(C)CCC[C@]2(C)c1cccc(CC(=O)O)c1` [Compound 226, 2-[3-[(6R)-22-Fluoro-3,6,10,10-tetramethyl-12,12-dioxo-24-oxa-12λ6-thia-3,4,19,28,30-pentazapentacyclo[23.3.1.12,5.015,23.016,20]triaconta-1(29),2(30),4,15,17,20,22,25,27-nonaen-6-yl]phenyl]acetic Acid], the “TECC (AUC, 10 μM)” value on CFTR was “C (a value between 20 and 80 is marked “C”)”. At NBD1, the “DSLS 3D (100 μM ΔT)” value is “C (a value greater than 10 °C and less than or equal to 25 °C is marked “C”)”.

For `CC(CC(=O)O)c1cccc(C2(C)CCCC(C)(C)CS(=O)(=O)CCc3c(c(F)cc4[nH]ccc34)Oc3ccc(F)c(c3)-c3nc2nn3C)c1` (single isomer, unassigned) [Compound 79B, 3-[3-(22,28-difluoro-3,6,10,10-tetramethyl-12,12-dioxo-24-oxa-12lambda6-thia-3,4,19,30-tetrazapentacyclo[23.3.1.12,5.015,23.016,20]triaconta-1(29),2(30),4,15,17,20,22,25,27-nonaen-6-yl)phenyl]butanoic Acid], the “TECC (AUC, 10 μM)” value at CFTR is “A (a TECC value less than 12 is marked “A”)”. For the same compound, the “DSLS 3D (100 μM ΔT)” value at NBD1 is “B (a value above 5 °C and less than or equal to 10 °C is marked “B”)”.

As for `Cn1nc2nc1-c1cc(ccc1F)Oc1c(F)cc3[nH]ccc3c1CCS(=O)(=O)CC(C)(C)CCCC2(C)c1ccc2c(c1)CC(C(=O)O)C2` (stereo not shown) [Compound 128, 5-(22,28-Difluoro-3,6,10,10-tetramethyl-12,12-dioxo-24-oxa-12λ6-thia-3,4,19,30-tetrazapentacyclo[23.3.1.12,5.015,23.016,20]triaconta-1(29),2(30),4,15,17,20,22,25,27-nonaen-6-yl)indane-2-carboxylic Acid], the “TECC (AUC, 10 μM)” value on CFTR is recorded as “A (a TECC value less than 12 is marked “A”)”. For the same compound, the “DSLS 3D (100 μM ΔT)” value on NBD1 was “C (a value greater than 10 °C and less than or equal to 25 °C is marked “C”)”.

As for `[2H]C([2H])([2H])C1(c2cccc(/C=C/C(=O)O)c2)CCCC(C)(C)CS(=O)(=O)CCc2c(c(F)cc3[nH]ccc23)Oc2ccc(F)c(c2)-c2nc1nn2C` (single isomer, unassigned) [Compound 15A, (E)-3-[3-[22,28-difluoro-3,10,10-trimethyl-12,12-dioxo-6-(trideuteriomethyl)-24-oxa-12lambda6-thia-3,4,19,30-tetrazapentacyclo[23.3.1.12,5.015,23.016,20]triaconta-1(29),2(30),4,15,17,20,22,25,27-nonaen-6-yl]phenyl]prop-2-enoic Acid], at CFTR, the “TECC (AUC, 10 μM)” value is recorded as “A (a TECC value less than 12 is marked “A”)”. The “DSLS 3D (100 μM ΔT)” value at NBD1 is “C (a value greater than 10 °C and less than or equal to 25 °C is marked “C”)”.

Take `COC(Cc1cccc(C2(C)CCCC(C)(C)CS(=O)(=O)CCc3c(c(F)cc4[nH]ccc34)Oc3ccc(F)c(c3)-c3nc2nn3C)c1)C(=O)O` (single isomer, unassigned) [Compound 135B, 3-[3-(22,28-Difluoro-3,6,10,10-tetramethyl-12,12-dioxo-24-oxa-12λ6-thia-3,4,19,30-tetrazapentacyclo-[23.3.1.12,5.015,23.016,20]triaconta-1(29),2(30),4,15,17,20,22,25,27-nonaen-6-yl)phenyl]-2-methoxy-propanoic Acid]: the “TECC (AUC, 10 μM)” value at CFTR was “C (a value between 20 and 80 is marked “C”)”. Besides, on NBD1, the “DSLS 3D (100 μM ΔT)” value was “C (a value greater than 10 °C and less than or equal to 25 °C is marked “C”)”.
